ChEMBL document CHEMBL3779870, “Differential metabolism of 3FDT and docetaxel in RLMs, rats, and HLMs” (Eur J Med Chem, 2016)

What was measured:
[1] = Drug metabolism in Sprague-Dawley rat feces assessed as metabolite M2 formation at 40 mg/kg, iv administered as single dose after 24 hrs by HPLC-TIC chromatography; assay type: ADME, organism-based; settings: in vivo
[2] = Drug metabolism in Sprague-Dawley rat feces assessed as metabolite M3 formation at 40 mg/kg, iv administered as single dose after 24 hrs by HPLC-TIC chromatography; assay type: ADME, organism-based; settings: in vivo
[3] = Drug metabolism in Sprague-Dawley rat feces assessed as metabolite M6 formation at 40 mg/kg, iv administered as single dose after 24 hrs by HPLC-TIC chromatography; assay type: ADME, organism-based; settings: in vivo
[4] = Drug metabolism in Sprague-Dawley rat feces assessed as metabolite M7 formation at 40 mg/kg, iv administered as single dose after 24 hrs by HPLC-TIC chromatography; assay type: ADME, organism-based; settings: in vivo
[5] = Drug metabolism in Sprague-Dawley rat feces assessed as metabolite M8 formation at 40 mg/kg, iv administered as single dose after 24 hrs by HPLC-TIC chromatography; assay type: ADME, organism-based; settings: in vivo
Plasma [6] = experiment: Drug metabolism in Sprague-Dawley rat plasma assessed as metabolite M1 formation at 40 mg/kg, iv administered as single dose after 4 to 24 hrs by HPLC-TIC chromatography; assay type: ADME, organism-based; settings: in vivo
Plasma [7] = experiment: Drug metabolism in Sprague-Dawley rat plasma assessed as metabolite M2 formation at 40 mg/kg, iv administered as single dose after 4 to 24 hrs by HPLC-TIC chromatography; assay type: ADME, organism-based; settings: in vivo
Plasma [8] = experiment: Drug metabolism in Sprague-Dawley rat plasma assessed as metabolite M3 formation at 40 mg/kg, iv administered as single dose after 4 to 24 hrs by HPLC-TIC chromatography; assay type: ADME, organism-based; settings: in vivo
[9] = Drug metabolism in Sprague-Dawley rat urine assessed as metabolite M1 formation at 40 mg/kg, iv administered as single dose after 24 hrs by HPLC-TIC chromatography; assay type: ADME, organism-based; settings: in vivo
[10] = Drug metabolism in Sprague-Dawley rat urine assessed as metabolite M2 formation at 40 mg/kg, iv administered as single dose after 24 hrs by HPLC-TIC chromatography; assay type: ADME, organism-based; settings: in vivo
[11] = Drug metabolism in Sprague-Dawley rat urine assessed as metabolite M3 formation at 40 mg/kg, iv administered as single dose after 24 hrs by HPLC-TIC chromatography; assay type: ADME, organism-based; settings: in vivo
Cytochrome P450 2A6 = target: T1, Cytochrome P450 2A6 (Homo sapiens, UniProt P11509); experiment: Drug metabolism assessed as recombinant human CYP2A6 mediated metabolite formation at 10 uM preincubated for 5 mins followed by addition of NADPH measured after 120 mins by HPLC-TIC chromatography; assay type: ADME; settings: recombinant enzyme, 2 h
T1 sequence (P11509 whole entry): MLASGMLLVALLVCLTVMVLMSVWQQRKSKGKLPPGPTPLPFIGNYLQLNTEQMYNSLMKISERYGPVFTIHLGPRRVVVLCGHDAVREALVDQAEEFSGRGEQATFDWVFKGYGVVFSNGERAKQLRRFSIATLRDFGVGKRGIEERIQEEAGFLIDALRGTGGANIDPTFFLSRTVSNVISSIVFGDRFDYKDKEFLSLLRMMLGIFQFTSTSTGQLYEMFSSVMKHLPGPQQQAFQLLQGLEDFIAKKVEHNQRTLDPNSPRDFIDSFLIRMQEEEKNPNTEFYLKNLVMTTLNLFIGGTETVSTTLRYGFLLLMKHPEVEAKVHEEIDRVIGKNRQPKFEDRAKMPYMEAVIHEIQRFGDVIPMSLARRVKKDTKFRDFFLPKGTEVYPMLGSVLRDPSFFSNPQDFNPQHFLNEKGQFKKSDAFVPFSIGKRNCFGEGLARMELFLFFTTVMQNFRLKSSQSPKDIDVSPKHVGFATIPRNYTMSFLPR

[12] = Cytotoxicity against human SKOV3 cells; assay type: functional, cell-based; settings: SK-OV-3
[13] = AUC (0 to t) in Sprague-Dawley rat; assay type: ADME, organism-based; settings: in vivo
[14] = AUC (0 to infinity) in Sprague-Dawley rat; assay type: ADME, organism-based; parameters: time infinity; settings: in vivo
[15] = Total clearance in Sprague-Dawley rat plasma; assay type: ADME, organism-based
[16] = Apparent volume of distribution in Sprague-Dawley rat; assay type: ADME, organism-based; settings: in vivo, read-out: Vd(app)

In the case of `CC(=O)O[C@@]12CO[C@@H]1C[C@H](O)[C@@]1(C)C(=O)[C@H](O)C3=C(C)[C@@H](OC(=O)[C@H](O)[C@@H](NC(=O)OC(C)(C)C(F)(F)F)c4ccccc4)C[C@@](O)([C@@H](OC(=O)c4ccccc4)C12)C3(C)C` (some centres not stated), the Drug metabolism [1] is reported as “metabolite_detected”, the Drug metabolism [2] is reported as “metabolite_detected” and the Drug metabolism [3] is reported as “metabolite_detected”. For the same molecule, the Drug metabolism [4] was “metabolite_detected”, the Drug metabolism [5] was “metabolite_detected” and the Drug metabolism (Plasma [6]) was “metabolite_notdetected”. The Drug metabolism (Plasma [7]) was “metabolite_notdetected”, the Drug metabolism (Plasma [8]) was “metabolite_notdetected” and the Drug metabolism [9] was “metabolite_notdetected”. For the same molecule, the Drug metabolism [10] was “metabolite_notdetected”, the Drug metabolism [11] was “metabolite_notdetected” and the Drug metabolism (Cytochrome P450 2A6) was “metabolite_notdetected”. For the same molecule, the IC50 [12] was 0.01 nM, the AUC(0-t) [13] was 3860 ng·h/mL and the AUC(0-inf) [14] was 3960 ng·h/mL. The clearance [15] was 21 mL/min/kg and the Vd [16] was 18.1 L/kg.
